Test results: paper PMC9231222 (Viruses, 2022)
Entries after “also recorded” stand apart in the source; their conditions may differ.

Tests used:
[1] = Cytotoxicity assay (MTT) in mock-infected MDBK cells; assay type: cell-based; details: cattle (Bos taurus); concentration reducing viability of mock-infected MDBK cells by 50%, MTT method
BVDV [2] = assay: Antiviral assay: inhibition of BVDV-induced cytopathogenicity in MDBK cells; assay type: cell-based; details: Bovine viral diarrhea virus isolates and strains, in Bos taurus, 72 h, read-out: BVDV EC50
BVDV [3] = assay type: cell-based, Bovine Viral Diarrhoea Virus (BVDV); details: BVDV incubated with compound at 4 °C for 1 h, then used to infect cells
BVDV [4] = assay: Time of drug addition assay in BVDV-infected MDBK cells (plaque reduction titer); assay type: cell-based, Bovine Viral Diarrhoea Virus (BVDV); details: along the viral replication cycle (between 2 and 14 h post-infection)

Structure (SMILES) | CC50 [1] [µM] | EC50 (BVDV [2]) [µM] | melting point [°C] | virucidal activity (BVDV [3]) | antiviral activity, time of drug addition (BVDV [4])
Cc1ccc2[nH]c(-c3ccc(NC(=O)c4ccc(Cl)cc4)cc3)nc2c1 [Compound 6e, N-(4-(5-Methyl-1H-benzo[d]imidazol-2-yl)phenyl)-4-chlorobenzamide] | > 100 | > 100 | > 300 |  | 
O=C(Nc1ccc(-c2nc3ccccc3[nH]2)cc1)c1ccc([N+](=O)[O-])cc1 [Compound 1d, N-(4-(1H-Benzo[d]imidazol-2-yl)phenyl)-4-nitrobenzamide] | > 100 | > 100 | > 300 |  | 
O=C(Nc1ccc(-c2nc3cc(Cl)c(Cl)cc3[nH]2)cc1)c1ccc([N+](=O)[O-])cc1 [Compound 3d, N-(4-(5,6-Dichloro-1H-benzo[d]imidazol-2-yl)phenyl)-4-nitrobenzamide] | > 100 | 53 | > 300 |  | 
O=C(Nc1ccc(-c2nc3cc(Cl)c(Cl)cc3[nH]2)cc1)c1ccc(Cl)cc1 [Compound 3e, N-(4-(5,6-Dichloro-1H-benzo[d]imidazol-2-yl)phenyl)-4-chlorobenzamide] | 60 | > 60 | 161 to 162 |  | 
Cc1cc2nc(-c3ccc(NC(=O)c4ccc([N+](=O)[O-])cc4)cc3)[nH]c2cc1C [Compound 7d, N-(4-(5,6-Dimethyl-1H-benzo[d]imidazol-2-yl)phenyl)-4-nitrobenzamide] | > 100 | > 100 | > 300 |  | 
COc1cc(C(=O)Nc2ccc(-c3nc4cc(C)ccc4[nH]3)cc2)cc(OC)c1OC [Compound 6c, N-(4-(5-Methyl-1H-benzo[d]imidazol-2-yl)phenyl)-3,4,5-trimethoxybenzamide] | > 100 | 0.23 |  | almost comparable to the untreated but infected ones | 
O=C(Nc1ccc(-c2nc3cc(F)ccc3[nH]2)cc1)c1ccc(Cl)cc1 [Compound 4e, N-(4-(5-Fluoro-1H-benzo[d]imidazol-2-yl)phenyl)-4-chlorobenzamide] | > 100 | > 100 | 138.6 |  | 
O=C(Nc1ccc(-c2nc3cc(F)c(F)cc3[nH]2)cc1)c1ccc([N+](=O)[O-])cc1 [Compound 5d, N-(4-(5,6-Difluoro-1H-benzo[d]imidazol-2-yl)phenyl)-4-nitrobenzamide] | > 100 | 3.6 | > 300 |  | 
O=C(Nc1ccc(-c2nc3cc(F)c(F)cc3[nH]2)cc1)c1ccc(Cl)cc1 [Compound 5e, N-(4-(5,6-Difluoro-1H-benzo[d]imidazol-2-yl)phenyl)-4-chlorobenzamide] | > 100 | > 100 | > 300 |  | 
COc1cc(C(=O)Nc2ccc(-c3nc4cc(Cl)c(Cl)cc4[nH]3)cc2)cc(OC)c1OC [Compound 3c, N-(4-(5,6-Dichloro-1H-benzo[d]imidazol-2-yl)phenyl)-3,4,5-trimethoxybenzamide] | 28 | 1.3 | 150.6 |  | 
O=C(Nc1ccc(-c2nc3ccccc3[nH]2)cc1)c1ccc(Cl)cc1 [Compound 1e, N-(4-(1H-Benzo[d]imidazol-2-yl)phenyl)-4-chlorobenzamide] | > 100 | > 100 | 170.5 |  | 
C[C@@]1(O)[C@H](O)[C@@H](CO)O[C@H]1n1cnc2c(=O)[nH]c(N)nc21 [NM 108, 2′-C-methylguanosine, reference compound] | > 100 | 1.5 |  |  | 
COc1cc(C(=O)Nc2ccc(-c3nc4cc(F)c(F)cc4[nH]3)cc2)cc(OC)c1OC [Compound 5c, N-(4-(5,6-Difluoro-1H-benzo[d]imidazol-2-yl)phenyl)-3,4,5-trimethoxybenzamide] | > 100 | 1.4 | 285 to 287 |  | 
COc1cc(C(=O)Nc2ccc(-c3nc4ccccc4[nH]3)cc2)cc(OC)c1OC [Compound 1c, N-(4-(1H-Benzo[d]imidazol-2-yl)phenyl)-3,4,5-trimethoxybenzamide] | 28.5 | 2.2 |  |  | 
O=C(Nc1ccc(-c2nc3cc(Cl)ccc3[nH]2)cc1)c1ccc(Cl)cc1 [Compound 2e, N-(4-(5-Chloro-1H-benzo[d]imidazol-2-yl)phenyl)-4-chlorobenzamide] | > 100 | > 100 | > 300 |  | 
O=C(Nc1ccc(-c2nc3cc(Cl)ccc3[nH]2)cc1)c1ccc([N+](=O)[O-])cc1 [Compound 2d, N-(4-(5-Chloro-1H-benzo[d]imidazol-2-yl)phenyl)-4-nitrobenzamide] | > 100 | 1.9 | > 300 |  | 
COc1cc(C(=O)Nc2ccc(-c3nc4cc(F)ccc4[nH]3)cc2)cc(OC)c1OC [Compound 4c, N-(4-(5-Fluoro-1H-benzo[d]imidazol-2-yl)phenyl)-3,4,5-trimethoxybenzamide] | > 100 | 41 | 171.8 |  | 
COc1cc(C(=O)Nc2ccc(-c3nc4cc(Cl)ccc4[nH]3)cc2)cc(OC)c1OC [Compound 2c, N-(4-(5-Chloro-1H-benzo[d]imidazol-2-yl)phenyl)-3,4,5-trimethoxybenzamide] | 45 | 0.09 | 286 to 287 |  | consistent antiviral activity along the viral replication cycle; also recorded: detectable activity
Cc1cc2nc(-c3ccc(NC(=O)c4ccc(Cl)cc4)cc3)[nH]c2cc1C [Compound 7e, N-(4-(5,6-Dimethyl-1H-benzo[d]imidazol-2-yl)phenyl)-4-chlorobenzamide] | > 100 | > 100 | > 300 |  | 
COc1cc(C(=O)Nc2ccc(-c3nc4cc(C)c(C)cc4[nH]3)cc2)cc(OC)c1OC [Compound 7c, N-(4-(5,6-Dimethyl-1H-benzo[d]imidazol-2-yl)phenyl)-3,4,5-trimethoxybenzamide] | > 100 | 0.3 | 272 to 274 | almost comparable to the untreated but infected ones | 
NC(=O)c1ncn([C@@H]2O[C@H](CO)[C@@H](O)[C@H]2O)n1 [Ribavirin, ribavirin, reference compound] | > 100 | 18 |  |  | 
Cc1ccc2nc(-c3ccc(NC(=O)c4ccc([N+](=O)[O-])cc4)cc3)[nH]c2c1 [Compound 6d, N-(4-(5-Methyl-1H-benzo[d]imidazol-2-yl)phenyl)-4-nitrobenzamide] | > 100 | > 100 |  |  | 
O=C(Nc1ccc(-c2nc3cc(F)ccc3[nH]2)cc1)c1ccc([N+](=O)[O-])cc1 [Compound 4d, N-(4-(5-Fluoro-1H-benzo[d]imidazol-2-yl)phenyl)-4-nitrobenzamide] | > 100 | 7.9 | > 300 |  | 
